# Reference: paper PMC4552381, “Unraveling Comparative Anti-Amyloidogenic Behavior of Pyrazinamide and D-Cycloserine: A Mechanistic Biophysical Insight” (PLoS ONE, 2015)
# Key:
# [1] = biological target: T1, Hen egg white lysozyme (HEWL) (Gallus gallus, UniProt P00698); test: heat-induced aggregation, turbidity at […] nm, single exponential fit; type: biochemical; settings: pH 7.4, 65°C, 120 h, 10 μM HEWL, stirring; inhibition of aggregation
# T1 construct: gene LYZ; native egg-white protein, commercial (Sigma), dialysed; mature chain, 129 residues, monomer, four disulfides
# [2] = biological target: T1, Hen egg white lysozyme (HEWL); test: intrinsic Trp fluorescence quenching, modified Stern-Volmer; type: binding; settings: pH 7.4, 20 mM sodium phosphate, 25°C, 5 μM HEWL, excitation 295 nm, double-log
# Description: intrinsic Trp fluorescence quenching, modified Stern-Volmer on Hen egg white lysozyme (HEWL)
# T1 sequence (P00698 19-147): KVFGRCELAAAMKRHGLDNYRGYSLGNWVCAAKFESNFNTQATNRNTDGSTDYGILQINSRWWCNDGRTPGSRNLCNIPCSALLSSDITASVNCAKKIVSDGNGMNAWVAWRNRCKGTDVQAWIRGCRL
Λ [1] [M⁻¹],binding constant ([2]; n = 1.2),"binding constant ([2]; n = 1.1, unreliable (text b59 prints another value))",Compound
1500,(2.45±0.19)×10^4 M^-1,–,NC(=O)c1cnccn1 [pyrazinamide]
470,–,(2.70±0.18)×10^3 M^-1,"N[C@@H]1CONC1=O [D-cycloserine, D-4-amino-3-isoxazolidone]"
